Results as given in US20100152434A1, “Protein Kinase-binding Nucleosides and Associated Methods” (priority 2007, published 2010).
Read-outs that look alike come from different tables or passages of the source.

Key:
OVCAR-4 = assay: cells; details: Homo sapiens
788-0 = assay: cells; details: Homo sapiens, 786-0
TK-10 [1] = system: TK-10
RPMI-8226 [2] = assay: cells; details: Homo sapiens
MALME-3M = assay: cells; details: Homo sapiens
HT29 = assay: cells; details: Homo sapiens
MCF7 = assay: cells; details: Homo sapiens
HOP-62 = assay: cells; details: Homo sapiens
RPMI-8226 [3] = system: RPMI-8226
TK-10 [4] = assay: cells; details: Homo sapiens
BT-549 = assay: cells; details: Homo sapiens
MDA-MB-435 = details: MDA-MB-435
SK-MEL-5 = assay: cells; details: Homo sapiens
RXF 393 = details: RXF 393
UACC-62 = assay: cells; details: Homo sapiens

## CNC(=O)NC[C@H]1O[C@@H](n2cnc3c(NC(=O)Nc4ccccc4)ncnc32)[C@H](O[Si](C)(C)C(C)(C)C)[C@@H]1CC(=O)N(C)OC [Compound 13, 2′-O-(tert-Butyldimethylsilyl)-3′,5′-dideoxy-3′-[(N-methoxy-N-methylcarboxamido)methyl]-5′-[(N-methylcarbamoyl)amino]-N^6-(N-phenylcarbamoyl)adenosine]
OVCAR-4; OVCAR-4
  GI50: 53 µM
OVCAR-4; OVCAR-4, read-out: LC50
  CC50: > 100 µM
SF-539
  TGI: >1.00E−4 Molar
SF-539; Log10 Concentration −4.0
  Percent Growth: 23%
SF-539; Log10 Concentration −5.0
  Percent Growth: 65%
SF-539; Log10 Concentration −6.0
  Percent Growth: 89%
SF-539; Log10 Concentration −7.0
  Percent Growth: 94%
SF-539; Log10 Concentration −8.0
  Percent Growth: 96%
A549/ATCC
  TGI: >1.00E−4 Molar
A549/ATCC; Log10 Concentration −4.0
  Percent Growth: 27%
A549/ATCC; Log10 Concentration −5.0
  Percent Growth: 49%
A549/ATCC; Log10 Concentration −6.0
  Percent Growth: 97%
A549/ATCC; Log10 Concentration −7.0
  Percent Growth: 100%
A549/ATCC; Log10 Concentration −8.0
  Percent Growth: 97%
788-0
  GI50: 9.01 µM
TK-10 [1]
  TGI: >1.00E−4 Molar
TK-10 [1]; Log10 Concentration −4.0
  Percent Growth: 17%
TK-10 [1]; Log10 Concentration −5.0
  Percent Growth: 65%
TK-10 [1]; Log10 Concentration −6.0
  Percent Growth: 104%
TK-10 [1]; Log10 Concentration −7.0
  Percent Growth: 106%
TK-10 [1]; Log10 Concentration −8.0
  Percent Growth: 99%
SNB-19
  TGI: >1.00E−4 Molar
SNB-19; Log10 Concentration −4.0
  Percent Growth: 51%
SNB-19; Log10 Concentration −5.0
  Percent Growth: 61%
SNB-19; Log10 Concentration −6.0
  Percent Growth: 83%
SNB-19; Log10 Concentration −7.0
  Percent Growth: 93%
SNB-19; Log10 Concentration −8.0
  Percent Growth: 94%
RPMI-8226 [2]; RPMI-8226
  GI50: 1.58 µM
RPMI-8226 [2]; RPMI-8226, read-out: LC50
  CC50: > 100 µM
M14
  TGI: >1.00E−4 Molar
M14; Log10 Concentration −4.0
  Percent Growth: 18%
M14; Log10 Concentration −5.0
  Percent Growth: 57%
M14; Log10 Concentration −6.0
  Percent Growth: 91%
M14; Log10 Concentration −7.0
  Percent Growth: 98%
M14; Log10 Concentration −8.0
  Percent Growth: 98%
DU-145
  TGI: >1.00E−4 Molar
DU-145; Log10 Concentration −4.0
  Percent Growth: 16%
DU-145; Log10 Concentration −5.0
  Percent Growth: 60%
DU-145; Log10 Concentration −6.0
  Percent Growth: 104%
DU-145; Log10 Concentration −7.0
  Percent Growth: 112%
DU-145; Log10 Concentration −8.0
  Percent Growth: 107%
MALME-3M
  GI50: 11.4 µM
MALME-3M; read-out: LC50
  CC50: > 100 µM
OVCAR-8
  TGI: >1.00E−4 Molar
OVCAR-8; Log10 Concentration −4.0
  Percent Growth: 22%
OVCAR-8; Log10 Concentration −5.0
  Percent Growth: 48%
OVCAR-8; Log10 Concentration −6.0
  Percent Growth: 103%
OVCAR-8; Log10 Concentration −7.0
  Percent Growth: 106%
OVCAR-8; Log10 Concentration −8.0
  Percent Growth: 107%
HT29; HT-29
  GI50: 5.37 µM
HT29; HT-29, read-out: LC50
  CC50: > 100 µM
OVCAR-5
  TGI: >1.00E−4 Molar
OVCAR-5; Log10 Concentration −4.0
  Percent Growth: 35%
OVCAR-5; Log10 Concentration −5.0
  Percent Growth: 71%
OVCAR-5; Log10 Concentration −6.0
  Percent Growth: 92%
OVCAR-5; Log10 Concentration −7.0
  Percent Growth: 98%
OVCAR-5; Log10 Concentration −8.0
  Percent Growth: 99%
MCF7; MCF7
  GI50: 5.59 µM
MCF7; MCF7, read-out: LC50
  CC50: > 100 µM
HOP-62; HOP-62
  GI50: 24.9 µM
HOP-62; HOP-62, read-out: LC50
  CC50: > 100 µM
NCI-H23
  TGI: >1.00E−4 Molar
NCI-H23; Log10 Concentration −4.0
  Percent Growth: 43%
NCI-H23; Log10 Concentration −5.0
  Percent Growth: 71%
NCI-H23; Log10 Concentration −6.0
  Percent Growth: 99%
NCI-H23; Log10 Concentration −7.0
  Percent Growth: 103%
NCI-H23; Log10 Concentration −8.0
  Percent Growth: 106%
RPMI-8226 [3]
  TGI: 5.40E−6 Molar
RPMI-8226 [3]; Log10 Concentration −4.0
  Percent Growth: −16%
RPMI-8226 [3]; Log10 Concentration −5.0
  Percent Growth: −25%
RPMI-8226 [3]; Log10 Concentration −6.0
  Percent Growth: 69%
RPMI-8226 [3]; Log10 Concentration −7.0
  Percent Growth: 91%
RPMI-8226 [3]; Log10 Concentration −8.0
  Percent Growth: 80%
MDA-MB-231/ATCC
  TGI: >1.00E−4 Molar
MDA-MB-231/ATCC; Log10 Concentration −4.0
  Percent Growth: 5%
MDA-MB-231/ATCC; Log10 Concentration −5.0
  Percent Growth: 55%
MDA-MB-231/ATCC; Log10 Concentration −6.0
  Percent Growth: 94%
MDA-MB-231/ATCC; Log10 Concentration −7.0
  Percent Growth: 104%
MDA-MB-231/ATCC; Log10 Concentration −8.0
  Percent Growth: 97%
TK-10 [4]; TK-10
  GI50: 20.5 µM
TK-10 [4]; TK-10, read-out: LC50
  CC50: > 100 µM
BT-549; BT-549
  GI50: 29 µM
BT-549; BT-549, read-out: LC50
  CC50: > 100 µM
HOP-92
  TGI: 2.43E−5 Molar
HOP-92; Log10 Concentration −4.0
  Percent Growth: −43%
HOP-92; Log10 Concentration −5.0
  Percent Growth: 27%
HOP-92; Log10 Concentration −6.0
  Percent Growth: 67%
HOP-92; Log10 Concentration −7.0
  Percent Growth: 93%
HOP-92; Log10 Concentration −8.0
  Percent Growth: 80%
MDA-MB-435
  TGI: >1.00E−4 Molar
MDA-MB-435; Log10 Concentration −4.0
  Percent Growth: 36%
MDA-MB-435; Log10 Concentration −5.0
  Percent Growth: 51%
MDA-MB-435; Log10 Concentration −6.0
  Percent Growth: 98%
MDA-MB-435; Log10 Concentration −7.0
  Percent Growth: 97%
MDA-MB-435; Log10 Concentration −8.0
  Percent Growth: 100%
UO-31
  TGI: >1.00E−4 Molar
UO-31; Log10 Concentration −4.0
  Percent Growth: 32%
UO-31; Log10 Concentration −5.0
  Percent Growth: 46%
UO-31; Log10 Concentration −6.0
  Percent Growth: 82%
UO-31; Log10 Concentration −7.0
  Percent Growth: 89%
UO-31; Log10 Concentration −8.0
  Percent Growth: 89%
SK-MEL-5; SK-MEL-5
  GI50: 5.81 µM
SK-MEL-5; SK-MEL-5, read-out: LC50
  CC50: > 100 µM
RXF 393
  TGI: 3.80E−5 Molar
RXF 393; Log10 Concentration −4.0
  Percent Growth: −36%
RXF 393; Log10 Concentration −5.0
  Percent Growth: 49%
RXF 393; Log10 Concentration −6.0
  Percent Growth: 98%
RXF 393; Log10 Concentration −7.0
  Percent Growth: 100%
RXF 393; Log10 Concentration −8.0
  Percent Growth: 103%
UACC-62; UACC-62
  GI50: 41.9 µM
UACC-62; UACC-62, read-out: LC50
  CC50: > 100 µM
